US20090203661A1, “Betulinic acid, derivatives and analogs thereof and uses therefor” (priority 2006, published 2009)

How the values were obtained:
PPARγ-GAL4 chimera = PPARγ-GAL4 chimera activation (FIG. 13C); type: cell-based
RKO colon cancer cells = assay: Western blot of proapoptotic responses and Sp proteins in RKO cells; type: cell-based
Description: RKO cells were […] with BA or CN-BA for 24 hr and whole cell lysates were examined by Western blot analysis.
RKO colon cancer cells were treated with BA/CN-BA for 24 hr (FIG. 15A) or 48 hr (FIG. 15B) and Miapaca-2 pancreatic cancer cells were treated with BA/CN-BA for 24 hr (FIG. 15C). Whole cell lysates were examined by Western blot analysis.

HCT-15 cells = assay: Caveolin-1 expression (Western blot) in HCT-15 cells; type: cell-based, human; conditions: HCT-15, cotreatment with T007
Description: SW480, HT-29, HCT-15 and Panc-28 (3×10^5) colon cancer cells were seeded in 6-well tissue culture plates in DMEM/Ham's F-12 medium containing 2.5% charcoal-stripped FBS. Protein is extracted from the cells treated either with vehicle or indicated compounds suspended for 24 hr except for caveolin-1 protein which was done for 72 hr. Samples were extracted in high salt buffer [50 mmol/L HEPES, 500 mmol/L NaCl, 1.5 mmol/L MgCl2, 1 mmol/L EGTA, 10% glycerol, and 1% Triton X-100 (pH 7.5), and 5 μL/mL protease inhibitor cocktail (Sigma-Aldrich)]. Samples were incubated at 100° C. for 2 min, separated on either 10% or 12% SDS-PAGE gels and then transferred to polyvinylidene difluoride membrane (PVDF; Bio-Rad, Hercules, Calif.). The PVDF membrane was blocked in 5% TBST-Blotto (10 mM Tris HCl, 150 mM NaCl, pH 8.0, 0.05% Triton X-100, and 5% nonfat dry milk) for about 30 min and was then incubated in fresh 5% TBST-Blotto with 1:1000 for caveolin-1 (Santa Cruz Biotechnology, Santa Cruz, Calif.), 1:1000 for p21 (BD Pharmingen, Frank lakes, NJ) and 1:10000 for β-actin (Sigma) primary antibody overnight with gentle shaking at 4° C. After washing with TBST for 10 min, the membrane was incubated with respective secondary antibody (1:5000) (Santa cruz, Calif.) in 5% TBST-Blotto for 3 hr. […]

HT-29 cells [1] = assay: Caveolin-1 expression (Western blot) in HT-29 cells; type: cell-based, human; conditions: for caveolin-1 induction: HT-29, 72 hr; for effect of T007 on induced caveolin-1 response: HT-29, cotreatment with T007
Description: SW480, HT-29, HCT-15 and Panc-28 (3×10^5) colon cancer cells were seeded in 6-well tissue culture plates in DMEM/Ham's F-12 medium containing 2.5% charcoal-stripped FBS. Protein is extracted from the cells treated either with vehicle or indicated compounds suspended for 24 hr except for caveolin-1 protein which was done for 72 hr. Samples were extracted in high salt buffer [50 mmol/L HEPES, 500 mmol/L NaCl, 1.5 mmol/L MgCl2, 1 mmol/L EGTA, 10% glycerol, and 1% Triton X-100 (pH 7.5), and 5 μL/mL protease inhibitor cocktail (Sigma-Aldrich)]. Samples were incubated at 100° C. for 2 min, separated on either 10% or 12% SDS-PAGE gels and then transferred to polyvinylidene difluoride membrane (PVDF; Bio-Rad, Hercules, Calif.). The PVDF membrane was blocked in 5% TBST-Blotto (10 mM Tris HCl, 150 mM NaCl, pH 8.0, 0.05% Triton X-100, and 5% nonfat dry milk) for about 30 min and was then incubated in fresh 5% TBST-Blotto with 1:1000 for caveolin-1 (Santa Cruz Biotechnology, Santa Cruz, Calif.), 1:1000 for p21 (BD Pharmingen, Frank lakes, NJ) and 1:10000 for β-actin (Sigma) primary antibody overnight with gentle shaking at 4° C. After washing with TBST for 10 min, the membrane was incubated with respective secondary antibody (1:5000) (Santa cruz, Calif.) in 5% TBST-Blotto for 3 hr. The membrane is then washed with TBST for 10 min, incubated with chemiluminiscence reagent from Perkin Elmer for one min and then exposed to Kodak X-OMAT AR autoradiography film (Eastman Kodak, Rochester, N.Y.).

3T3-L1 adipocytes = assay: 3T3-L1 differentiation and Oil Red O staining; type: cell-based; conditions: 0.25 μM
Description: 3T3-L1 preadipocytes were cultured on poly-lysine-coated coverslips with DMEM and 10% FBS at 5% CO2 in 24-well plates. At 2 days post-confluence, cells were incubated with fresh media supplemented with 3-isobutyl-1-methylxanthine (0.5 mM), dexamethasone (1 μM), insulin (1.7 μM), and indicated compounds (0.25 μM). After 48 hr, cells were changed to fresh media and treated with DMSO or indicated compounds for 5 days. Cells without any treatment for the entire 7 days were used as control. The cells were then fixed with 10% formalin. Fixed cells were washed with 60% isopropanol and stained with filtered 60% Oil Red O in deionized water. After staining, cells were washed with water and photographed.

HT-29 cells [2] = assay: miR-27a and ZBTB10 mRNA expression in HT-29 cells; type: cell-based, human
p21 promoter [3] = assay: p21 promoter luciferase transactivation in Panc-28 cells; type: cell-based, human; conditions: for transactivation, p21-luc(Fl) (−2325 to +8): Panc-28; for effect of T007 on induced p21-luc(Fl) luciferase activity: cotreatment with T007
Description: Cells were seeded onto the 12-well plates and 0.4 μg of GAL4-Luc, 0.04 μg of β-GAL, 0.04 μg of GAL4DBD-PPARγ, and 0.4 μg of p21-luc(FL) containing −2325 to +8 insert, 0.4 μg of p21-luc (−124) containing −124 to +8 insert and 0.4 μg of p21-LUC (−60) containing −60 to +8 insert were transfected using LipofectAMINE reagent (Invitrogen) following the manufacturer's protocol. Cells were treated either with vehicle or respective compounds suspended in complete medium after 6 hr of transfection. Cell lysate is extracted after 20-22 hr by adding 100 μl of 1× reporter lysis buffer per well and 30 μl of this extract is used to quantitate the luciferase activity using Lumicount (Perkin-Elmer Life and Analytical Sciences). Each experiment is done in triplicate and the results are normalized to the β-GAL activity.

p21 promoter [4] = assay: Chromatin immunoprecipitation (ChIP) assay, p21 promoter, Panc-28 cells; type: cell-based, human; conditions: 5 μM, 1 or 2 hr
Description: Panc-28 cells were treated with the different compounds as indicated for 24 hr and whole cell lysates were obtained and analyzed by immunoblots. […] Cells were transfected with the various constructs, treated with DMSO, BA, CN-BA, CN-BA-Me alone or in combination with T007, and luciferase activity determined. Results of all transactivation studies in this Figure are presented as means±SE for at least three separate determinations for each treatment group. Significant (p<0.05) induction compared to solvent (DMSO) control (*) and inhibition by cotreatment with T007 (**) are indicated. FIGS. 10D-10F show chromatin immunoprecipitation assays. Primers designed for the proximal region of the p21 promoter (FIG. 10D) were used for a ChIP assay in Panc-28 cells (FIG. 10E) treated with DMSO, 5 μM BA, 5 μM CN-BA, and 5 μM CN-BA-Me for 1 or 2 hr. Analysis of interactions of Sp1 and PPARγ with the p21 promoter were carried out in the ChIP assay as described. The ChIP assay was also used to examine binding of TFIIB to the GAPDH promoter (positive control) (FIG. 10F) and to exon 1 of CNAP1 (negative control).
The ligand-dependent recruitment of PPARγ to the p21 promoter by CN-BA and CN-BA-Me was examined using a ChIP assay of Panc-28 cells treated with the betulinic acid, CN-BA and CN-BA-Me for 1 or 2 hr. […] This is consistent with receptor-independent activation of p21 by betulinic acid and the mechanism of this response is currently being investigated. As a control for this experiment, transcription factor TFIIb bound to the proximal region of the GAPDH gene promoter but not to exon-1 of the CNAP1 gene.

C=C(C)[C@@H]1CC[C@]2(C(=O)O)CC[C@]3(C)[C@H](CC[C@@H]4[C@@]5(C)CC[C@H](O)C(C)(C)[C@@H]5CC[C@]43C)[C@@H]12 [betulinic acid, Betulinic acid]
activation of PPARγ-GAL4 chimera (PPARγ-GAL4 chimera): inactive | concentrations decreasing Sp proteins (RKO colon cancer cells; 48 hr): 1 to 5 µM

COC(=O)C12CCC(C(C)C)C1C1CCC3C4(C)C=C(C#N)C(=O)C(C)(C)C4CCC3(C)C1(C)CC2 (stereo not drawn) [CN-BA-Me, Methyl 2-cyano-lup-1-en-3-oxo-20-oate]
effect of T007 on induced caveolin-1 response (HCT-15 cells): inhibition of the induced caveolin-1 response | caveolin-1 induction (HT-29 cells [1]): induce caveolin-1 | effect of T007 on induced caveolin-1 response (HT-29 cells [1]): inhibition of the induced caveolin-1 response | Oil Red O staining (fat droplets) (3T3-L1 adipocytes): induce Oil Red O staining | ZBTB10 expression (HT-29 cells [2]): increased expression of ZBTB10 | miR-27a expression (HT-29 cells [2]): decreased expression of miR-27a | transactivation, p21-luc(Fl) (−2325 to +8) (p21 promoter [3]): induce transactivation | effect of T007 on induced p21-luc(Fl) luciferase activity (p21 promoter [3]): inhibited | Sp1 binding to p21 promoter (p21 promoter [4]): enhanced binding of Sp1 | recruitment of PPARγ to proximal GC-rich region of p21 promoter (p21 promoter [4]): recruited PPARγ

CC(C)C1CCC2(C(=O)O)CCC3(C)C(CCC4C5(C)C=C(C#N)C(=O)C(C)(C)C5CCC43C)C12 (stereo not drawn) [CN-BA]
activation of PPARγ-GAL4 chimera (PPARγ-GAL4 chimera): activates | effect of T007 on induced caveolin-1 response (HCT-15 cells): inhibition of the induced caveolin-1 response | caveolin-1 induction (HT-29 cells [1]): induce caveolin-1 | effect of T007 on induced caveolin-1 response (HT-29 cells [1]): inhibition of the induced caveolin-1 response | Oil Red O staining (fat droplets) (3T3-L1 adipocytes): induce Oil Red O staining | ZBTB10 expression (HT-29 cells [2]): increased expression of ZBTB10 | miR-27a expression (HT-29 cells [2]): decreased expression of miR-27a | transactivation, p21-luc(Fl) (−2325 to +8) (p21 promoter [3]): induce transactivation | concentration giving significant induction of p21-luc(60) (p21 promoter [3]; construct lacking GC-rich sites 3 and 4): 7.5 µM | effect of T007 on induced p21-luc(Fl) luciferase activity (p21 promoter [3]): inhibited | Sp protein expression (RKO colon cancer cells; 24 and 48 hr): decrease Sp protein expression | ATF3, JNK phosphorylation, CHOP and DR5 (RKO colon cancer cells; 24 hours): activate | proapoptotic responses (RKO colon cancer cells; 24 hours): activate proapoptotic responses | Sp1 binding to p21 promoter (p21 promoter [4]): enhanced binding of Sp1 | recruitment of PPARγ to proximal GC-rich region of p21 promoter (p21 promoter [4]): recruited PPARγ
